In PubChem BioAssay AID1963442 (Molecular Pharmacology Branch, DTP, NCI, 2024):
Where “and” joins values, the source holds several entries; their conditions need not be identical. Equal entries are not always repeated.

System: MPNST complex spheroid with HUVEC/MSC, growth, % test/control
Assay: Anticancer human tumor MPNST cell line growth inhibition [Asc];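 further: compounds left on spheroids for seven days before reading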
Conditions: for viability, T/C: stronger effect = lower value
Summary of the method: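 Spheroid model: tumor line + HUVEC + hMSC. Single agents and combinations; top conc. at/near clinical Cmax (10 microM if undetermined), half-log dilutions. DMSO stocks at 800-fold test concentration.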

[1] = curve of first compound, second compound 0.1 µM
[2] = curve of first compound, second compound 0.316 µM
[3] = curve of first compound, second compound 1 µM
[4] = curve of first compound, second compound 3.16 µM
[5] = curve of first compound, second compound 10 µM
[6] = second compound 0.1 µM, first compound 0.00316 µM
[7] = second compound 0.1 µM, first compound 0.01 µM
[8] = second compound 0.1 µM, first compound 0.0316 µM
[9] = second compound 0.1 µM, first compound 0.1 µM
[10] = second compound 0.1 µM, first compound 0.316 µM
[11] = second compound 0.1 µM, first compound 1 µM
[12] = second compound 0.316 µM, first compound 0.00316 µM
[13] = second compound 0.316 µM, first compound 0.01 µM
[14] = second compound 0.316 µM, first compound 0.0316 µM
[15] = second compound 0.316 µM, first compound 0.1 µM
[16] = second compound 0.316 µM, first compound 0.316 µM
[17] = second compound 0.316 µM, first compound 1 µM
[18] = second compound 1 µM, first compound 0.00316 µM
[19] = second compound 1 µM, first compound 0.01 µM
[20] = second compound 1 µM, first compound 0.0316 µM
[21] = second compound 1 µM, first compound 0.1 µM
[22] = second compound 1 µM, first compound 0.316 µM
[23] = second compound 1 µM, first compound 1 µM
[24] = second compound 3.16 µM, first compound 0.00316 µM
[25] = second compound 3.16 µM, first compound 0.01 µM
[26] = second compound 3.16 µM, first compound 0.0316 µM
[27] = second compound 3.16 µM, first compound 0.1 µM
[28] = second compound 10 µM, first compound 0.00316 µM
[29] = second compound 10 µM, first compound 0.01 µM
[30] = second compound 10 µM, first compound 0.0316 µM
[31] = second compound 10 µM, first compound 0.1 µM

O=C(c1ccc(F)c(F)c1Nc1ccc(I)cc1F)N1CC(O)([C@@H]2CCCCN2)C1 + Cc1c(S(C)(=O)=O)c(-c2cc(F)cc(N3CCN(c4ccc(NS(=O)(=O)c5ccc(NC(CCN6CCC(C(=O)OCCCP(=O)(O)O)CC6)CSc6ccccc6)c(S(=O)(=O)C(F)(F)F)c5)cc4)CC3)c2)c(-c2ccc(Cl)cc2)n1C(C)C
IC50 [1]: 303 nM
IC50 [2]: 336 nM
IC50 [3]: 259 nM
IC50 [4]: 240 nM
IC50 [5]: 181 nM
viability, T/C [6]: 62.2%
viability, T/C [7]: 69.7%
viability, T/C [8]: 77.1%
viability, T/C [9]: 95.3%
viability, T/C [10]: 49%
viability, T/C [11]: 22.4%
viability, T/C [12]: 83%
viability, T/C [13]: 80.3%
viability, T/C [14]: 107%
viability, T/C [15]: 106%
viability, T/C [16]: 51.9%
viability, T/C [17]: 16.5%
viability, T/C [18]: 82.9%
viability, T/C [19]: 80.6%
viability, T/C [20]: 106%
viability, T/C [21]: 77%
viability, T/C [22]: 44.3%
viability, T/C [23]: 13.2%
viability, T/C [24]: 86.2%
viability, T/C [25]: 90.3%
viability, T/C [26]: 80.7%
viability, T/C [27]: 110%
viability, T/C (second compound 3.16 µM, first compound 0.316 µM): 36.6%
viability, T/C (second compound 3.16 µM, first compound 1 µM): 14.5%
viability, T/C [28]: 86.3%
viability, T/C [29]: 81.9%
viability, T/C [30]: 82.5%
viability, T/C [31]: 72.8%
viability, T/C (second compound 10 µM, first compound 0.316 µM): 28.8%
viability, T/C (second compound 10 µM, first compound 1 µM): 8.55%

NC1CCC(NC2CC2c2ccccc2)CC1 (stereo unspecified)
viability, T/C (compound 0.000316 µM): 78.8% and 74.6% and 64.2%
viability, T/C (compound 0.001 µM): 78.6% and 79.4% and 71.8%
viability, T/C (compound 0.00316 µM): 76.3% and 81% and 80.4%
viability, T/C (compound 0.01 µM): 74% and 88.9% and 68.4%
viability, T/C (compound 0.0316 µM): 83.4% and 76.8% and 64.2%
viability, T/C (compound 0.1 µM): 78.2% and 98.4% and 47.2%
IC50 (curve of compound): > 100 nM and 82.7 nM

C=C(F)C(=O)N1CCN(c2nc(OCC3CCCN3C)nc3c2CCN(c2cccc4cccc(Cl)c24)C3)CC1CC#N (stereo unspecified) + CNC(C)C(=O)NC1CN(S(=O)(=O)c2cccc(S(=O)(=O)N3CCC4CCC(C(=O)NC(c5ccccc5)c5ccccc5)N4C(=O)C(NC(=O)C(C)NC)C3)c2)CCC2CCC(C(=O)NC(c3ccccc3)c3ccccc3)N2C1=O
IC50 (curve of first compound, second compound 0.00316 µM): 3750 nM
IC50 (curve of first compound, second compound 0.01 µM): 4200 nM
IC50 (curve of first compound, second compound 0.0316 µM): 1810 nM
IC50 [1]: 3550 nM
IC50 [2]: 3430 nM
IC50 [3]: 3640 nM
viability, T/C (second compound 0.00316 µM, first compound 0.0316 µM): 77%
viability, T/C (second compound 0.00316 µM, first compound 0.1 µM): 75.2%
viability, T/C (second compound 0.00316 µM, first compound 0.316 µM): 65.9%
viability, T/C (second compound 0.00316 µM, first compound 1 µM): 89.8%
viability, T/C (second compound 0.00316 µM, first compound 3.16 µM): 58.3%
viability, T/C (second compound 0.00316 µM, first compound 10 µM): 1.84%
viability, T/C (second compound 0.01 µM, first compound 0.0316 µM): 85.9%
viability, T/C (second compound 0.01 µM, first compound 0.1 µM): 75.9%
viability, T/C (second compound 0.01 µM, first compound 0.316 µM): 97.4%
viability, T/C (second compound 0.01 µM, first compound 1 µM): 85%
viability, T/C (second compound 0.01 µM, first compound 3.16 µM): 66.2%
viability, T/C (second compound 0.01 µM, first compound 10 µM): 0.9%
viability, T/C (second compound 0.0316 µM, first compound 0.0316 µM): 99.4%
viability, T/C (second compound 0.0316 µM, first compound 0.1 µM): 76.5%
viability, T/C (second compound 0.0316 µM, first compound 0.316 µM): 81.4%
viability, T/C (second compound 0.0316 µM, first compound 1 µM): 54.6%
viability, T/C (second compound 0.0316 µM, first compound 3.16 µM): 46.9%
viability, T/C (second compound 0.0316 µM, first compound 10 µM): 1%
viability, T/C [8]: 79.3%
viability, T/C [9]: 58.5%
viability, T/C [10]: 88.4%
viability, T/C [11]: 73.5%
viability, T/C (second compound 0.1 µM, first compound 3.16 µM): 55.6%
viability, T/C (second compound 0.1 µM, first compound 10 µM): 1.36%
viability, T/C [14]: 103%
viability, T/C [15]: 52.8%
viability, T/C [16]: 61%
viability, T/C [17]: 69.5%
viability, T/C (second compound 0.316 µM, first compound 3.16 µM): 57%
viability, T/C (second compound 0.316 µM, first compound 10 µM): 1.32%
viability, T/C [20]: 91.9%
viability, T/C [21]: 60.4%
viability, T/C [22]: 51%
viability, T/C [23]: 77.1%
viability, T/C (second compound 1 µM, first compound 3.16 µM): 56.8%
viability, T/C (second compound 1 µM, first compound 10 µM): 0.71%

Cn1ncnc1[C@H]1c2n[nH]c(=O)c3cc(F)cc(c23)N[C@@H]1c1ccc(F)cc1 + Cc1c(S(C)(=O)=O)c(-c2cc(F)cc(N3CCN(c4ccc(NS(=O)(=O)c5ccc(NC(CCN6CCC(C(=O)OCCCP(=O)(O)O)CC6)CSc6ccccc6)c(S(=O)(=O)C(F)(F)F)c5)cc4)CC3)c2)c(-c2ccc(Cl)cc2)n1C(C)C
IC50 [1]: > 100 nM
IC50 [2]: > 100 nM
IC50 [3]: > 100 nM
IC50 [4]: > 100 nM
IC50 [5]: > 100 nM
viability, T/C (second compound 0.1 µM, first compound 0.000316 µM): 78.7%
viability, T/C (second compound 0.1 µM, first compound 0.001 µM): 77.9%
viability, T/C [6]: 72.1%
viability, T/C [7]: 71.5%
viability, T/C [8]: 77.2%
viability, T/C [9]: 50.6%
viability, T/C (second compound 0.316 µM, first compound 0.000316 µM): 71.8%
viability, T/C (second compound 0.316 µM, first compound 0.001 µM): 74.6%
viability, T/C [12]: 80.4%
viability, T/C [13]: 97.1%
viability, T/C [14]: 66.9%
viability, T/C [15]: 59.8%
viability, T/C (second compound 1 µM, first compound 0.000316 µM): 84.7%
viability, T/C (second compound 1 µM, first compound 0.001 µM): 78.4%
viability, T/C [18]: 93.8%
viability, T/C [19]: 72.1%
viability, T/C [20]: 55.9%
viability, T/C [21]: 65.2%
viability, T/C (second compound 3.16 µM, first compound 0.000316 µM): 86.7%
viability, T/C (second compound 3.16 µM, first compound 0.001 µM): 75.8%
viability, T/C [24]: 72.6%
viability, T/C [25]: 63.3%
viability, T/C [26]: 61%
viability, T/C [27]: 56%
viability, T/C (second compound 10 µM, first compound 0.000316 µM): 100%
viability, T/C (second compound 10 µM, first compound 0.001 µM): 84.8%
viability, T/C [28]: 66.1%
viability, T/C [29]: 64.2%
viability, T/C [30]: 60.2%
viability, T/C [31]: 73.6%

Cn1ncnc1[C@H]1c2n[nH]c(=O)c3cc(F)cc(c23)N[C@@H]1c1ccc(F)cc1
viability, T/C (compound 0.000316 µM): 96.5% and 77% and 100%
viability, T/C (compound 0.001 µM): 85.1% and 66.4% and 78.8%
viability, T/C (compound 0.00316 µM): 81.7% and 67.3% and 52.8%
viability, T/C (compound 0.01 µM): 80.5% and 61.2% and 65.7%
viability, T/C (compound 0.0316 µM): 70% and 42.6% and 64.6%
viability, T/C (compound 0.1 µM): 75.9% and 56.8% and 44%
IC50 (curve of compound): > 100 nM and 30.7 nM
